Measured values reported in ChEMBL document CHEMBL5370584, “Reprogramming Energy Metabolism with Synthesized PDK Inhibitors Based on Dichloroacetate Derivatives and Targeted Delivery Systems for Enhanced Cancer Therapy” (J Med Chem, 2023).
Active and inactive are the calls of the source. The calls are words filed in the database; no cut-off is given here.

Assays:
[1] = Toxicity in BALB/c mouse assessed as effect on body weight at 0.15 to 1.5 mg/kg measured upto 16 days; format: organism-based; settings: in vivo, 384 h, dose 0.15-1.5 mg/kg, time < 16 day
MOLM-13 = assay: Antiproliferative activity against human MOLM-13 cells assessed as inhibition of cell growth incubated for 24 hrs by MTT assay; format: functional, cell-based; settings: MOLM-13, 24 h
NB-4 = assay: Antiproliferative activity against human NB4 cells assessed as inhibition of cell growth incubated for 24 hrs by MTT assay; format: functional, cell-based; settings: NB-4, 24 h
4T1 [2] = assay: Antiproliferative activity against mouse 4T1 cells assessed as inhibition of cell growth incubated for 24 hrs by MTT assay; format: functional, cell-based; settings: 4T1, 24 h
HeLa = assay: Antiproliferative activity against human HeLa cells assessed as inhibition of cell growth incubated for 24 hrs by MTT assay; format: functional, cell-based
[3] = Antiproliferative activity against African green monkey COS7 cells assessed as inhibition of cell growth incubated for 24 hrs by MTT assay; format: toxicity, cell-based, Chlorocebus aethiops, COS-7; settings: African green monkey (Chlorocebus aethiops), COS-7 cells
[4] = molecular target: [Pyruvate dehydrogenase (acetyl-transferring)] kinase isozyme 1, mitochondrial (Homo sapiens, UniProt Q15118); assay: Inhibition of PDK1 (unknown origin) incubated for 30 mins in presence of ATP by kinase glo luminescent kinase assay
Chain of [Pyruvate dehydrogenase (acetyl-transferring)] kinase isozyme 1, mitochondrial (Q15118 whole entry): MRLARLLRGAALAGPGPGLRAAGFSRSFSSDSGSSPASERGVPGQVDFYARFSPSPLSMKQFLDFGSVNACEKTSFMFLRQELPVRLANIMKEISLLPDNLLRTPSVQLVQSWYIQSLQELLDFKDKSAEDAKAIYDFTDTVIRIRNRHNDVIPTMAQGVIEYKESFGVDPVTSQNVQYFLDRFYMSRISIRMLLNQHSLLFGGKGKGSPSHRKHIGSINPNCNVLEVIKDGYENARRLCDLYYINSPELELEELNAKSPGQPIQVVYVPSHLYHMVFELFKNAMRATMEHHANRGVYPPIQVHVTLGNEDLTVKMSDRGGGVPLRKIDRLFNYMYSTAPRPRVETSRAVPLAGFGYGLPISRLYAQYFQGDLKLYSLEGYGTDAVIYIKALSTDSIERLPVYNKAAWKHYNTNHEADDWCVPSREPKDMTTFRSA

[5] = Antiproliferative activity against rat PBMC cells assessed as inhibition of cell growth at 5 uM incubated for 24 hrs by MTT assay; format: toxicity, cell-based
[6] = molecular target: [Pyruvate dehydrogenase (acetyl-transferring)] kinase isozyme 2, mitochondrial (Mus musculus) (UniProt Q9JK42); assay: Inhibition of PDK2 transcription in mouse 4T1 cells at 4 uM incubated for 24 hrs by qPCR analysis; format: cell-based
[7] = molecular target: [Pyruvate dehydrogenase (acetyl-transferring)] kinase isozyme 3, mitochondrial (Mus musculus) (UniProt Q922H2); assay: Inhibition of PDK3 transcription in mouse 4T1 cells at 4 uM incubated for 24 hrs by qPCR analysis; format: cell-based
Chain of [Pyruvate dehydrogenase (acetyl-transferring)] kinase isozyme 3, mitochondrial (Mus musculus) (Q922H2 whole entry): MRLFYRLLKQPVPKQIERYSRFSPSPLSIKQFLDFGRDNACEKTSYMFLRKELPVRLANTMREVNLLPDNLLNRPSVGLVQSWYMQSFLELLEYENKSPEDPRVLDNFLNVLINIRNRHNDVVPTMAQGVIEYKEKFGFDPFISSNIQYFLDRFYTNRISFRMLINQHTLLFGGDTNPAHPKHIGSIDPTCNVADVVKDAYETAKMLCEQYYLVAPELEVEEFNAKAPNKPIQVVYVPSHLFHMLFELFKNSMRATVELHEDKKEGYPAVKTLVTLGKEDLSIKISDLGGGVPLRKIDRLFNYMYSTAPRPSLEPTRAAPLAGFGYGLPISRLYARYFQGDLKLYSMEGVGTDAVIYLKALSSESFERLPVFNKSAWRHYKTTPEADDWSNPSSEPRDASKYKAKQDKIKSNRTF

[8] = molecular target: [Pyruvate dehydrogenase (acetyl-transferring)] kinase isozyme 4, mitochondrial (Mus musculus) (UniProt O70571); assay: Inhibition of PDK4 transcription in mouse 4T1 cells at 4 uM incubated for 24 hrs by qPCR analysis; format: cell-based
Chain of [Pyruvate dehydrogenase (acetyl-transferring)] kinase isozyme 4, mitochondrial (Mus musculus) (O70571 whole entry): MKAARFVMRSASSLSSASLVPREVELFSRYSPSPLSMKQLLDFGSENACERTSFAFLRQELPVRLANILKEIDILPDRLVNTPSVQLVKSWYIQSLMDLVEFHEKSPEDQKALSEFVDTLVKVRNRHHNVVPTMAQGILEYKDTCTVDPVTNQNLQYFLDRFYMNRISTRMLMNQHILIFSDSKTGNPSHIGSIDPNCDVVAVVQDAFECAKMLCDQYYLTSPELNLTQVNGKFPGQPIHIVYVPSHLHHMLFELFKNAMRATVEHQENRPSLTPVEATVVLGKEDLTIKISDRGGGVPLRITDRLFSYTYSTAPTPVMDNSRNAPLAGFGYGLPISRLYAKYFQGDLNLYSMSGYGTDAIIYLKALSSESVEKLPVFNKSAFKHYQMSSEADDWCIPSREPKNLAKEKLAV

4T1 [9] = assay: Inhibition of PDK1 expression in mouse 4T1 cells at 4 uM incubated for 24 hrs by Western blot analysis; format: functional, cell-based
4T1 [10] = assay: Downregulation of PHDC at Ser293 residues in mouse 4T1 cells at 4 uM incubated for 24 hrs by Western blot analysis; format: functional, cell-based
4T1 [11] = assay: Antiproliferative activity against PDK knockdown mouse 4T1 cells assessed as reduction in apoptotic percentage at 2 uM incubated for 24 hrs by flow cytometry analysis (reference value: 61.6%); format: functional; design: scale not given: the % may be the effect or the level left
COS-7 [12] = assay: Effect on PDK1 expression in African monkey COS7 cells at 12 uM measured after 24 hrs; format: functional, cell-based; settings: Chlorocebus aethiops
COS-7 [13] = assay: Effect on PDK4 expression in African monkey COS7 cells at 12 uM measured after 24 hrs; format: functional, cell-based; settings: Chlorocebus aethiops
COS-7 [14] = assay: Effect on PDHA1 expression in African monkey COS7 cells at 12 uM measured after 24 hrs; format: functional, cell-based; settings: Chlorocebus aethiops
COS-7 [15] = assay: Effect on phosphorylation of PDH expression at Serine 293 residues in African monkey COS7 cells at 12 uM measured after 24 hrs; format: functional, cell-based; settings: Chlorocebus aethiops
4T1 [16] = assay: Induction of mitochondrial respiration in mouse 4T1 cells assessed as increase in basal respiration at 2 to 6 uM incubated for 6 hrs by seahorse XF96 flux analyzer; format: functional, cell-based; settings: dose 2-6 µM
4T1 [17] = assay: Induction of mitochondrial respiration in mouse 4T1 cells assessed as increase in oxygen consumption rate at 2 to 6 uM incubated for 6 hrs by seahorse XF96 flux analyzer; format: functional, cell-based; settings: dose 2-6 µM
4T1 [18] = assay: Induction of mitochondrial respiration in mouse 4T1 cells assessed as increase in glucose uptake at 2 to 6 uM incubated for 18 hrs followed by 6 hrs incubation in serum free high glucose medium by glucose uptake assay; format: functional, cell-based; settings: dose 2-6 µM, time 24.0 hrs
4T1 [19] = assay: Induction of mitochondrial respiration in mouse 4T1 cells assessed as upregulation of intracellular ATP level at 2 uM incubated for 12 to 24 hrs […]; format: functional, cell-based; settings: time 12-24 hrs
4T1 [20] = assay: Inhibition of glycolysis in mouse 4T1 cell lysates assessed as reduction in LDHA expression at 4 uM incubated for 24 hrs; format: functional, cell-based
4T1 [21] = assay: Inhibition of glycolysis in mouse 4T1 cell lysates assessed as reduction in lactate production at 1 to 4 uM measured after 6 to 12 hrs; format: functional, cell-based; settings: dose 1-4 µM, time 6-12 hrs
4T1 [22] = assay: Downregulation of HIF-1alpha expression in mouse 4T1 cells at 4 uM incubated for 24 hrs; format: functional, cell-based
4T1 [23] = assay: Downregulation of c-myc expression in mouse 4T1 cells at 4 uM incubated for 24 hrs; format: functional, cell-based
4T1 [24] = assay: Upregulation of p53 level in mouse 4T1 cells at 4 uM incubated for 24 hrs; format: functional, cell-based
4T1 [25] = assay: Induction of ROS production in mouse 4T1 cells by confocal scanning microscopy based analysis; format: functional, cell-based
4T1 [26] = assay: Induction of mitochondrial membrane potential depolarization in mouse 4T1 cells at low dose measured after 12 hrs by JC-1 staining based analysis; format: functional, cell-based
4T1 [27] = assay: Induction of mitochondrial membrane potential depolarization in mouse 4T1 cells at high dose measured after 12 hrs by JC-1 staining based analysis; format: functional, cell-based
4T1 [28] = assay: Induction of apoptosis in mouse 4T1 cells assessed as increase in Bax expression at 4 uM incubated for 24 hrs; format: functional, cell-based
4T1 [29] = assay: Induction of apoptosis in mouse 4T1 cells assessed as reduction in Bcl-2 expression at 4 uM incubated for 24 hrs; format: functional, cell-based
4T1 [30] = assay: Induction of apoptosis in mouse 4T1 cells assessed as increase in proportion of apoptotic cells incubated for 24 hrs by annexin V-FITC/PI staining based flow cytometry analysis; format: functional, cell-based; settings: dose 2-3 µM
[31] = Toxicity in BALB/c mouse assessed as effect on heart at 0.15 to 1.5 mg/kg measured upto 16 days; format: organism-based; settings: in vivo, 384 h, dose 0.15-1.5 mg/kg, time < 16 day
[32] = Toxicity in BALB/c mouse assessed as effect on lung at 0.15 to 1.5 mg/kg measured upto 16 days; format: organism-based; settings: in vivo, 384 h, dose 0.15-1.5 mg/kg, time < 16 day
4T1 [33] = assay: Antitumor activity against mouse 4T1 cells xenografted in BALB/c mouse model assessed as reduction in hepatosplenomegaly by measuring organ coefficient at 0.15 to 1.5 mg/kg; format: functional, organism-based; settings: dose 0.15-1.5 mg/kg
4T1 [34] = assay: Antitumor activity against mouse 4T1 cells xenografted in BALB/c mouse model assessed as reduction in inflammatory index in routine blood at 0.15 to 1.5 mg/kg; format: functional, organism-based; settings: dose 0.15-1.5 mg/kg
[35] = Toxicity in BALB/c mouse assessed as effect on AST level at 0.15 to 1.5 mg/kg measured upto 16 days; format: organism-based; settings: in vivo, 384 h, dose 0.15-1.5 mg/kg, time < 16 day
[36] = Toxicity in BALB/c mouse assessed as effect on ALT level at 0.15 to 1.5 mg/kg measured upto 16 days; format: organism-based; settings: in vivo, 384 h, dose 0.15-1.5 mg/kg, time < 16 day
[37] = Toxicity in BALB/c mouse assessed as effect on UREA level at 0.15 to 1.5 mg/kg measured upto 16 days; format: organism-based; settings: in vivo, 384 h, dose 0.15-1.5 mg/kg, time < 16 day
[38] = Toxicity in BALB/c mouse assessed as effect on UA level at 0.15 to 1.5 mg/kg measured upto 16 days; format: organism-based; settings: in vivo, 384 h, dose 0.15-1.5 mg/kg, time < 16 day

For O=C(CCCCCNC(=O)C(Cl)Cl)Nc1ccc([As]2SCCCS2)cc1, the Activity [1] was “Non-Toxic”, the IC50 (MOLM-13) was 1350 nM and the IC50 (NB-4) was 1720 nM. The IC50 (4T1 [2]) was 1920 nM, the IC50 (HeLa) was 2500 nM and the IC50 at 24 h [3] was 11200 nM. For the same compound, the EC50 [4] was 68 nM, the Activity [5] was “Non-Toxic” and the inhibition [6] was “Active”. The inhibition [7] was “Active”, the inhibition [8] was “Active” and the inhibition (4T1 [9]) was “Active”. For the same compound, the Activity (4T1 [10]) was “Active”, the Activity (4T1 [11]) was 16.1% and the Activity (COS-7 [12]) was “inactive”. For the same compound, the Activity (COS-7 [13]) was “inactive”, the Activity (COS-7 [14]) was “inactive” and the Activity (COS-7 [15]) was “inactive”. For the same compound, the Activity (4T1 [16]) was “Active”, the Activity (4T1 [17]) was “Active” and the Activity (4T1 [18]) was “Active”. The Activity (4T1 [19]) was “Active”, the inhibition (4T1 [20]) was “Active” and the inhibition (4T1 [21]) was “Active”. For the same compound, the Activity (4T1 [22]) was “Active”, the Activity (4T1 [23]) was “Active” and the Activity (4T1 [24]) was “Active”. For the same compound, the Activity (4T1 [25]) was “Active”, the Activity (4T1 [26]) was “inactive” and the Activity (4T1 [27]) was “Active”. For the same compound, the Activity (4T1 [28]) was “Active”, the Activity (4T1 [29]) was “Active” and the Activity (4T1 [30]) was “Dose-Dependent Effect”. The Activity [31] was “Non-Toxic”, the Activity [32] was “Non-Toxic” and the Activity (4T1 [33]) was “Active”. For the same compound, the Activity (4T1 [34]) was “Active”, the Activity [35] was “Non-Toxic” and the Activity [36] was “Non-Toxic”. For the same compound, the Activity [37] was “Non-Toxic” and the Activity [38] was “Non-Toxic”.
